Measurements: PMC9944328 (Nature Communications, 2023)

Test system: SSTR2 mutants
Test: SSTRs Gi-mediated cAMP inhibition, GloSensor, HEK293, 5 μM forskolin, 15 min room temperature (SSTR2 mutants)
Type: cell-based, human
Settings: for Fold of WT: Gi signaling EC50
Method: The levels of the intracellular 3′, 5′-cyclic AMP (cAMP) were measured by the GloSensor cAMP assay (Promega) as described in the previous studies[28],[41] which has been widely used. The human full-length SSTRs and mutants were cloned into the pcDNA3.1+ vector with a HA signal sequence followed by a Flag tag at the N-terminus. HEK293 cells (ATCC, CRL-1573) were seeded into 6-well microplates at a density of 1.0 × 10^6 cells/well and cultured for 24 h at 37 °C with 5% CO2. Cells were then co-transfected with SSTR wild-type or mutants and GloSensor plasmids. After 24 h of transfection, the cells were dissociated with TrypLE™ Express Enzyme (1X) (Thermo Fisher Scientific) and collected by centrifugation at 500 × g for 5 min. Then the collected cells were suspended in Hank’s balanced salt solution [HBSS (Thermo Fisher Scientific)] supplemented with […] (YEASEN), and then the suspension cells were seeded into 96-well plates with 90 μl/well. After incubating at room temperature for 40 min, 5 μM forskolin and ligands diluted in HBSS were added to each well and the plates were incubated at room temperature for 15 min. […] were measured using the Synergy H1 microplate reader (BioTek) and the data presented are means of at least three independent experiments.

[1] = Gi signaling, SSTR2 D295(7.36)A, n=3
[2] = Gi signaling, SSTR2 F127(3.37)A, n=3
[3] = Gi signaling, SSTR2 F208(5.38)A, n=3
[4] = Gi signaling, SSTR2 F265(6.44)A, n=3
[5] = Gi signaling, SSTR2 F294(7.35)A, n=3
[6] = Gi signaling, SSTR2 I130(3.40)A, n=3
[7] = Gi signaling, SSTR2 I195(45.52)A, n=3
[8] = Gi signaling, SSTR2 I284ECL3A, n=3
[9] = Gi signaling, SSTR2 K291(7.32)A, n=3
[10] = Gi signaling, SSTR2 L99(2.60)A, n=3
[11] = Gi signaling, SSTR2 N276(6.55)A, n=3
[12] = Gi signaling, SSTR2 P220(5.50)A, n=3
[13] = Gi signaling, SSTR2 Q102(2.63)A, n=3
[14] = Gi signaling, SSTR2 T194(45.51)A, n=3
[15] = Gi signaling, SSTR2 V103(2.64)A, n=3
[16] = Gi signaling, SSTR2 W269(6.48)A, n=3
[17] = Gi signaling, SSTR2 Y50(1.39)A, n=3
[18] = Gi signaling, SSTR2 Y205(5.35)A, n=3
[19] = Gi signaling, SSTR2 Y302(7.43)A, n=3

N#Cc1cccc(-c2ccc3ncc(-c4cc(F)cc(F)c4)c(N4CCC(N)CC4)c3c2)c1O [paltusotine]
Fold of WT (SSTR2 Y50(1.39)A): 1.90
Fold of WT (SSTR2 Y205(5.35)A): 0.26
Fold of WT (SSTR2 Y302(7.43)A): 6.27
EC50 [1]: 2.46 ± 1.67 nM
Emax [1]: 107.80±3.11 %WT
EC50 [2]: 1.02 ± 1.29 nM
Emax [2]: 107.70±2.32 %WT
EC50 [3]: 64.2 ± 2.53 nM
Emax [3]: 91.78±2.89 %WT
EC50 [4]: 11.9 ± 1.45 nM
Emax [4]: 113.70±4.57 %WT
EC50 (Gi signaling, SSTR2 F272A, n=3): 63.1 ± 4.1 nM
Emax (Gi signaling, SSTR2 F272A, n=3): 57.21±2.64 %WT
EC50 [5]: 2.64 ± 1.26 nM
Emax [5]: 100.30±10.53 %WT
EC50 [6]: 19 ± 2.64 nM
Emax [6]: 116.50±4.76 %WT
EC50 [7]: 83.4 ± 1.65 nM
Emax [7]: 106.20±8.71 %WT
EC50 [8]: 1.22 nM
Emax [8]: 113.80±5.04 %WT
EC50 [9]: 5.22 ± 8.67 nM
Emax [9]: 97.49±6.65 %WT
EC50 [10]: 17.1 ± 5.16 nM
Emax [10]: 107.80±2.34 %WT
EC50 [11]: 1.65 ± 3.51 nM
Emax [11]: 89.08±4.63 %WT
EC50 [12]: 3.22 ± 1.38 nM
Emax [12]: 116.00±5.23 %WT
EC50 [13]: 31 ± 6.59 nM
Emax [13]: 97.26±5.45 %WT
EC50 [14]: 97.7 ± 2.2 nM
Emax [14]: 85.51±3.13 %WT
EC50 [15]: 33 ± 2.87 nM
Emax [15]: 87.33±6.38 %WT
EC50 [16]: 0.44 nM
Emax [16]: 98.94±12.38 %WT
EC50 [17]: 3.6 ± 6.86 nM
Emax [17]: 106.10±0.90 %WT
EC50 [18]: 0.48 nM
Emax [18]: 98.71±2.78 %WT
EC50 [19]: 11.8 ± 3.12 nM
Emax [19]: 55.80±2.34 %WT
EC50 (I195A, run 1, best-fit): 83.4 nM
LogEC50 (I195A, run 1, best-fit): -7.079
EC50 (I195A, run 2, best-fit): 112 nM
LogEC50 (I195A, run 2, best-fit): -6.952
EC50 (I195A, run 3, best-fit): 54.8 nM
LogEC50 (I195A, run 3, best-fit): -7.261
Bottom (best-fit) (I195M, run 1): 2.531
EC50 (I195M, run 1): 8.24 nM
LogEC50 (I195M, run 1): -8.084
Span (best-fit) (I195M, run 1): 94.08
Top (best-fit) (I195M, run 1): 96.61
Bottom (best-fit) (I195M, run 2): -2.367
EC50 (I195M, run 2): 4.64 nM
LogEC50 (I195M, run 2): -8.333
Span (best-fit) (I195M, run 2): 106.3
Top (best-fit) (I195M, run 2): 103.9
EC50 (I284A, run 1, best-fit): 1.25 nM
LogEC50 (I284A, run 1, best-fit): -8.902
EC50 (I284A, run 2, best-fit): 1.14 nM
LogEC50 (I284A, run 2, best-fit): -8.945
EC50 (I284A, run 3, best-fit): 1.28 nM
LogEC50 (I284A, run 3, best-fit): -8.894
Bottom (best-fit value), cAMP inhibition (K291A-1 (run 1)): 1.006
LogEC50 (best-fit value), cAMP inhibition (K291A-1 (run 1)): -8.362
Span (best-fit value), cAMP inhibition (K291A-1 (run 1)): 92.81
Top (best-fit value), cAMP inhibition (K291A-1 (run 1)): 93.82
Bottom (best-fit value), cAMP inhibition (K291A-2 (run 2)): -4.234
LogEC50 (best-fit value), cAMP inhibition (K291A-2 (run 2)): -8.83
Span (best-fit value), cAMP inhibition (K291A-2 (run 2)): 114.6
Top (best-fit value), cAMP inhibition (K291A-2 (run 2)): 110.4
Bottom (best-fit value), cAMP inhibition (K291A-3 (run 3)): -10.93
LogEC50 (best-fit value), cAMP inhibition (K291A-3 (run 3)): -8.158
Span (best-fit value), cAMP inhibition (K291A-3 (run 3)): 99.18
Top (best-fit value), cAMP inhibition (K291A-3 (run 3)): 88.26
EC50 (L99A, run 1, best-fit): 6.78 nM
LogEC50 (L99A, run 1, best-fit): -8.169
EC50 (L99A, run 2, best-fit): 22.1 nM
LogEC50 (L99A, run 2, best-fit): -7.655
EC50 (L99A, run 3, best-fit): 22.4 nM
LogEC50 (L99A, run 3, best-fit): -7.65
Bottom (best-fit value), cAMP inhibition (N276A-1 (run 1)): -4.414
LogEC50 (best-fit value), cAMP inhibition (N276A-1 (run 1)): -9.003
Span (best-fit value), cAMP inhibition (N276A-1 (run 1)): 102.7
Top (best-fit value), cAMP inhibition (N276A-1 (run 1)): 98.25
Bottom (best-fit value), cAMP inhibition (N276A-2 (run 2)): -3.382
LogEC50 (best-fit value), cAMP inhibition (N276A-2 (run 2)): -8.659
Span (best-fit value), cAMP inhibition (N276A-2 (run 2)): 88.97
Top (best-fit value), cAMP inhibition (N276A-2 (run 2)): 85.59
Bottom (best-fit value), cAMP inhibition (N276A-3 (run 3)): -1.142
LogEC50 (best-fit value), cAMP inhibition (N276A-3 (run 3)): -8.752
Span (best-fit value), cAMP inhibition (N276A-3 (run 3)): 84.55
Top (best-fit value), cAMP inhibition (N276A-3 (run 3)): 83.41
Bottom (best-fit value) (P220A-1 (run 1)): 6.519
LogEC50 (best-fit value) (P220A-1 (run 1)): -8.456
Span (best-fit value) (P220A-1 (run 1)): 112
Top (best-fit value) (P220A-1 (run 1)): 118.5
Bottom (best-fit value) (P220A-2 (run 2)): 4.552
LogEC50 (best-fit value) (P220A-2 (run 2)): -8.51
